These results are taken from patent US7538111B2, “Benzenesulphonamide derivatives, method for production and use thereof for treatment of pain” (Laboratoires Fournier S.A., priority 2003, dated 2009).

In general, melting point refers to the temperature, or range, at which the solid turns liquid. Usually Kb stands for the equilibrium dissociation constant of an antagonist, usually derived from a functional assay.

Counter-ions that a name gives are not always drawn.

Tested on in the first series: not given
Test: not given
Settings: not given
As to `CCN(CC)CCC1CCN(C(=O)COCCN(C)S(=O)(=O)c2c(C)cc(OC)cc2C)CC1.O=C(O)/C=C/C(=O)O`, the melting point worked out at 60 °C.
`COc1cc(C)c(S(=O)(=O)N(C)CCOCC(=O)N2CCC(CN3CCC3)CC2)c(C)c1.O=C(O)/C=C/C(=O)O` had a melting point of 75 °C.
With `COc1cc(C)c(S(=O)(=O)N(C)CCOCC(=O)N2CCC(CCCN3CCC3)CC2)c(C)c1.O=C(O)/C=C/C(=O)O`, the melting point worked out at 65 °C.
On the same count and under the same terms, the figure for `COc1cc(C)c(S(=O)(=O)N(C)CCOCC(=O)N2CCC(CCCN(C)C)CC2)c(C)c1.O=C(O)/C=C/C(=O)O` is 55 °C; for `COc1cc(C)c(S(=O)(=O)N(C)CCOCC(=O)N2CCN(CCCN3CCC3)CC2)c(C)c1.O=C(O)/C=C/C(=O)O.O=C(O)/C=C/C(=O)O` it is 82 °C; for `CCN(CCOCC(=O)N1CCN(CCCN(C)C)CC1)S(=O)(=O)c1c(C)cc(OC)cc1C.O=C(O)/C=C/C(=O)O.O=C(O)/C=C/C(=O)O` it is 60 °C.
`COc1cc(Cl)c(S(=O)(=O)N(C)CCOCC(=O)N2CCN(CCCN(C)C)CC2)c(Cl)c1.O=C(O)/C=C/C(=O)O.O=C(O)/C=C/C(=O)O` came in with a melting point of 60 °C.
The same measure, in the same setting: then `COc1cc(C)c(S(=O)(=O)N(C)CCOCC(=O)N2CCC(C(C)(C)CN3CCC3)CC2)c(C)c1.O=C(O)/C=C/C(=O)O`, with 60 to 62 °C.
As to `COc1cc(Cl)c(S(=O)(=O)N(C)CCOCC(=O)N2CCC(CCN(C)C)CC2)c(Cl)c1.O=C(O)/C=C/C(=O)O`, the melting point turned out to be 70 °C.
Turning to `COc1cc(C)c(S(=O)(=O)N(CCOCC(=O)N2CCN(CCN3CCCC3)CC2)C2CC2)c(C)c1` (as salt: fumarate) [Example 19, N-[2-[2-[4-[2-(1-pyrrolidinyl)ethyl]-1-piperazinyl]-2-oxo-ethoxy]ethyl]-4-methoxy-N-cyclopropyl-2,6-dimethylbenzenesulphonamide, difumarate], the melting point stood at 141 °C.
Molecule `CCN(CCOCC(=O)N1CCN(C2CCN(C)CC2)CC1)S(=O)(=O)c1c(C)cc(OC)cc1C` (as salt: fumarate) [Example 21, N-[2-[2-[4-(1-methyl-4-piperidinyl)-1-piperazinyl]-2-oxo-ethoxy]ethyl]-4-methoxy-N-ethyl-2,6-dimethylbenzenesulphonamide, difumarate] returned a melting point of 206 °C.
In turn, `COc1cc(C)c(S(=O)(=O)N(C)CCOCC(=O)N2CCN(C3CCN(C(C)(C)C)CC3)CC2)c(C)c1` (as salt: fumarate) [Example 32, N-[2-[2-[4-[1-(1,1-dimethylethyl)-4-piperidinyl]-1-piperazinyl]-2-oxo-ethoxy]ethyl]-4-methoxy-N,2,6-trimethylbenzenesulphonamide, difumarate] gave a melting point of 230 °C.
For `COc1cc(C)c(S(=O)(=O)N(C)CCOCC(=O)N2CCN(CCCN3CCN(C)CC3)CC2)c(C)c1` (as salt: fumarate) [Example 45, N-[2-[2-[4-[3-(4-methyl-1-piperazinyl)propyl]-1-piperazinyl]-2-oxo-ethoxy]ethyl]-4-methoxy-N,2,6-trimethylbenzenesulphonamide, difumarate], the melting point was found to be 204 °C.
Still for that read-out and setting: the figure for `CCN1C2CCC1CC(N1CCN(C(=O)COCCN(C)S(=O)(=O)c3c(C)cc(OC)cc3C)CC1)C2` (centres unmarked) (as salt: fumarate) [Example 46, N-[2-[2-[4-(8-ethyl-8-azabicyclo[3.2.1]oct-3-yl)-1-piperazinyl]-2-oxo-ethoxy]ethyl]-4-methoxy-N,2,6-trimethylbenzenesulphonamide, difumarate] is 132 °C.
The molecule `COc1cc(C)c(S(=O)(=O)N(C)CCOCC(=O)N2CCC(CCN3CCCC3)CC2)c(C)c1` (as salt: fumarate) [Example 76, 4-methoxy-N,2,6-trimethyl-N-[2-[2-[4-[2-(1-pyrrolidinyl)ethyl]-1-piperidinyl]-2-oxoethoxy]ethyl]benzenesulphonamide, fumarate] registered a melting point of 55 °C.
In turn, `COc1cc(C)c(S(=O)(=O)N(CCOCC(=O)N2CCC(CCN3CCCC3)CC2)C2CC2)c(C)c1` (as salt: fumarate) [Example 79, N-cyclopropyl-4-methoxy-2,6-dimethyl-N-[2-[2-[4-[2-(1-pyrrolidinyl)ethyl]-1-piperidinyl]-2-oxoethoxy]ethyl]benzenesulphonamide, fumarate] yielded a melting point of 50 °C.

In the next series the test system is formalin-induced pain response (paw licking). Nature of the series: formalin-induced pain response test in mice. The series is classed as in vivo. As to conditions: oral route, dose 3 mg/kg, 2nd phase 15 to 30 min after formalin injection. On the procedure:
The compounds of the present invention were evaluated for their analgesic property using the formalin-induced pain response test in mice (Shibata, M., Ohkubo, T., Takahashi, H. & R. Inoki. Modified formalin test: characteristic biphasic pain response. Pain, 38, 347-352). To summarize, formalin (0.92% in physiological saline) is injected into the hind paw and the period of paw licking, which represents pain intensity, is recorded from 0 to 5 min (1st phase) and from 15 to 30 min (2nd phase) after the injection.
Turning to `COc1cc(C)c(S(=O)(=O)N(C)CCOCC(=O)N2CCN(C3CN4CCC3CC4)CC2)c(C)c1` (racemic) [Example 4, N-[2-[2-[4-[(3RS)-1-azabicyclo[2.2.2]oct-3-yl]-1-piperazinyl]-2-oxo-ethoxy]ethyl]-4-methoxy-N,2,6-trimethylbenzenesulphonamide, difumarate], the “percentage inhibition of the second paw licking phase induced by formalin” value was 43%.

For a further series, the target named is T1, B1 receptor of bradykinin (Homo sapiens, UniProt P46663).
T1 construct: To induce expression of the B1 receptor of bradykinin, the vein segments are allowed to incubate at 37° C; from tissue; host or cells: human umbilical vein rings, endothelium removed, incubated 16 h in EMEM to induce the receptor
T1 sequence (P46663 1-353): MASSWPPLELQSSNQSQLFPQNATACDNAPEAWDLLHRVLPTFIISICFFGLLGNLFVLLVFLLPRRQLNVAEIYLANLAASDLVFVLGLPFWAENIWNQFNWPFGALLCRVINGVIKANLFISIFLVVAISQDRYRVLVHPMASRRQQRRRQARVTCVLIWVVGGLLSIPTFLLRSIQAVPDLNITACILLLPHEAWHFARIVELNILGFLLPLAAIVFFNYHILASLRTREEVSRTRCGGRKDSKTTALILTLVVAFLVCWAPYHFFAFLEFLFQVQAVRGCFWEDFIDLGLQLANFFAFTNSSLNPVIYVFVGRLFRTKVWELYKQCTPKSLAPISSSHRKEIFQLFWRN
Nature of the series: human umbilical vein contraction by des-Arg10-Kallidin, antagonism at the B1 receptor of bradykinin. It is filed as cell-based. As to conditions: isolated human umbilical vein rings, agonist des-Arg10-Kallidin, pKB=-log KB from EC50 concentration ratio. On the procedure: This test uses the human umbilical vein and is conducted as per the following protocol:
The cord is dissected in Krebs solution to release the umbilical vein. The vein is cleansed of all adhering tissue and cut into small rings 3-4 mm in width. The endothelium is carefully removed by inserting a fine n° 1 catheter, made slightly abrasive, into the vessel lumen.
After a series of rinsings, rests and load readjustments, the maximum contraction of each segment is determined by further depolarisation with the KPSS solution.
After a new rest period during which the 1 g load is constantly readjusted, the following compounds are added to the isolated organ bath: Mepyramine (1 μM), Atropine (1 μM), Indometacine (3 μM), LNA (30 μM), Captopril (10 μM), DL-Thiorphan (1 μM) and Nifedipine (0.1 μM).
After 20 minutes, the molecule to be tested or the molecule solvent is added to the isolated organ bath. The molecules are examined at 10 μM; should a molecule show a sufficient level of activity, it is examined at lower concentrations (eg: 1-0.1-0.01 μM).
After 15 minutes incubation, the vein segments are contracted through the addition of increasing concentrations of des-Arg10-Kallidin (0.1 nM to 30 000 nM) in the chamber.
The pKB=[−log KB] is obtained from the equation: KB—[A]/(concentration ratio−1) in which [A] is the concentration of antagonist and the (concentration ratio) represents the ratio between EC50 in the presence of an antagonist and EC50 in the absence of antagonist.
As to `COc1cc(C)c(S(=O)(=O)N(CCOCC(=O)N2CCN(CCN3CCCC3)CC2)C2CC2)c(C)c1` [Example 19, N-[2-[2-[4-[2-(1-pyrrolidinyl)ethyl]-1-piperazinyl]-2-oxo-ethoxy]ethyl]-4-methoxy-N-cyclopropyl-2,6-dimethylbenzenesulphonamide, difumarate], the antagonist equilibrium constant (Kb) was 31.6 nM.
For the molecule `CCN(CCOCC(=O)N1CCN(C2CCN(C)CC2)CC1)S(=O)(=O)c1c(C)cc(OC)cc1C` [Example 21, N-[2-[2-[4-(1-methyl-4-piperidinyl)-1-piperazinyl]-2-oxo-ethoxy]ethyl]-4-methoxy-N-ethyl-2,6-dimethylbenzenesulphonamide, difumarate], the Kb is 15.8 nM.
Turning to `COc1cc(C)c(S(=O)(=O)N(C)CCOCC(=O)N2CCN(C3CCN(C(C)(C)C)CC3)CC2)c(C)c1` [Example 32, N-[2-[2-[4-[1-(1,1-dimethylethyl)-4-piperidinyl]-1-piperazinyl]-2-oxo-ethoxy]ethyl]-4-methoxy-N,2,6-trimethylbenzenesulphonamide, difumarate], the Kb is 0.631 nM.
The same measure, in the same setting: the figure for `COc1cc(C)c(S(=O)(=O)N(C)CCOCC(=O)N2CCN(CCCN3CCN(C)CC3)CC2)c(C)c1` [Example 45, N-[2-[2-[4-[3-(4-methyl-1-piperazinyl)propyl]-1-piperazinyl]-2-oxo-ethoxy]ethyl]-4-methoxy-N,2,6-trimethylbenzenesulphonamide, difumarate] is 12.6 nM; for `CCN1C2CCC1CC(N1CCN(C(=O)COCCN(C)S(=O)(=O)c3c(C)cc(OC)cc3C)CC1)C2` (centres unmarked) [Example 46, N-[2-[2-[4-(8-ethyl-8-azabicyclo[3.2.1]oct-3-yl)-1-piperazinyl]-2-oxo-ethoxy]ethyl]-4-methoxy-N,2,6-trimethylbenzenesulphonamide, difumarate] it is 2.51 nM; for `COc1cc(C)c(S(=O)(=O)N(C)CCOCC(=O)N2CCC(CCN3CCCC3)CC2)c(C)c1` [Example 76, 4-methoxy-N,2,6-trimethyl-N-[2-[2-[4-[2-(1-pyrrolidinyl)ethyl]-1-piperidinyl]-2-oxoethoxy]ethyl]benzenesulphonamide, fumarate] it is 10 nM.
Turning to `COc1cc(C)c(S(=O)(=O)N(CCOCC(=O)N2CCC(CCN3CCCC3)CC2)C2CC2)c(C)c1` [Example 79, N-cyclopropyl-4-methoxy-2,6-dimethyl-N-[2-[2-[4-[2-(1-pyrrolidinyl)ethyl]-1-piperidinyl]-2-oxoethoxy]ethyl]benzenesulphonamide, fumarate], the Kb was 7.94 nM.
As for `CCN1CCC(C2CCN(C(=O)COCCN(C)S(=O)(=O)c3c(C)cc(OC)cc3C)CC2)CC1` [Example 84, 4-methoxy-N,2,6-trimethyl-N-[2-[2-[4-(1-ethyl-4-piperidinyl)-1-piperidinyl]-2-oxoethoxy]ethyl]benzenesulphonamide, fumarate], the Kb was 0.631 nM.
Take `COc1cc(C)c(S(=O)(=O)N(C)CCOCC(=O)N2CCC(N3CCCN(C)CC3)CC2)c(C)c1` [Example 89, N-[2-[2-[4-(hexahydro-4-methyl-1H-1,4-diazepin-1-yl)-1-piperidinyl]-2-oxoethoxy]ethyl]-4-methoxy-N,2,6-trimethylbenzenesulphonamide, fumarate]: the Kb is 7.94 nM.
